Data taken from patent US20080207563A1, “METHOD FOR INHIBITING PROLIFERATION OF TUMOR CELLS” (priority 2007, published 2008).

How the values were obtained:
[1] = tested on: HT-29 colorectal cancer cells; experiment: Cell viability (MTT) assay, single agents and combinations with erlotinib; format: cell-based, human; conditions: for combination effect of the two drugs: erlotinib in the presence of low doses of MEK inhibitor, HT-29, simultaneous or sequential
Experimental: (§1) Cell respiration, as an indicator of cell viability, is measured by the reduction of 3-(4,5-Dimethylthiazol-2-yl)-2,5-diphenyltetrazolium bromide (MTT) to formazan. HT-29 cells are maintained in McCoy's 5a medium (modified) containing 10% fetal bovine serum and are seeded to 96-well microtiter dishes at 2,000 cells/well in a 100 μl volume while MDA-MB-468 cells are maintained in Dulbecco's modified Eagle's medium containing 10% fetal bovine serum and are seeded to 96-well microtiter dishes at 4,000 cells/well in a volume 100 μl. On the following day, the cells are exposed to compounds in an additional 100 μl at the indicated concentrations and cultured for 5 days. After the addition of 50 μl/well of a 5 mg/ml MTT stock in Dulbecco's phosphate-buffered saline (PBS), the cells are incubated for an additional 2.5 hours at 37° C. Thereafter, the medium is removed and 50 μl of 100% ethanol is added to each well to dissolve the formazan crystals. The conversion of MTT into formazan by viable cells is assessed by a microplate reader at 570 nm. The results are presented as a percentage of the viability of untreated cells (control), which are regarded as 100% viable.
(§2) Dose-response interactions (antagonism, additive, and synergism) of two drugs are expressed as the Fa-Cl (the fraction affected by dose-the combination index) plot using the method of Chou and Talalay described in Advances in Enzyme Regulation, Volume 22, pp. 27-55 (1984) processed by the computer software Calcusyn (BIOSOFT, Cambridge, UK). This program provides objective computerized evaluation procedures. For mutually non-exclusive drugs that have totally independent modes of action, Cl<1, =1, and >1 indicates synergism, additive effect, and antagonism, respectively. The data are supported by classic isobolograms made by the same program. The isobolograms can be generated at different effect levels, e.g., ED50, ED70 and ED90. When it is generated at ED50, if the combination data points for Fa=0.5 falls on the diagonal, an additive effect is indicated; if it falls on the lower left, synergism is indicated; and if it falls on the upper right, antagonism is indicated. If a single drug is not very effective, and an ED50 can not be achieved, the results Fa-Cl or Isobologram can not be provided. In this case, the results are shown as classic dose-effect relationship charts.

[2] = tested on: MDA-MB-468 breast cancer cells; experiment: as above; format: cell-based, human; conditions: for growth suppression / growth inhibitory effect: single agent treatment, in vitro, MDA-MB-468
Experimental: as §1, §2

EC50 ([1]; Homo sapiens, single agent, HT-29, ED50 can not be reached) [µM] | SMILES | combination effect of the two drugs [1] | combination index (Cl) values, Isobolograms ([2]; combination with erlotinib, ED50, ED75, ED90, all three treatment schedules, CalcuSyn) | combination index (Cl), Fa-Cl plot ([2]; combination with erlotinib, Fa >40%, simultaneous or sequential addition, MTT on day 5, CalcuSyn) | combination effect of the two drugs ([2]; combination with erlotinib, MDA-MB-468, simultaneous or sequential) | growth suppression / growth inhibitory effect [2] | sensitivity of the cells to single agent treatment ([1]; single agent, HT-29 (braf mutation))
– | C[C@@H](c1ccccc1)[C@@H](C(=O)Nc1ccc(I)cc1F)N1C(=O)N[C@H](c2ccc(OCCO)cc2)C1=O [Example 48, (2S,3S)—N-(2-Fluoro-4-iodo-phenyl)-2-{(R)-4-[4-(2-hydroxy-ethoxy)-phenyl]-2,5-dioxo-imidazolidin-1-yl}-3-phenyl-butyramide] | synergistic effects | – | – | – | – | –
– | C[C@@H](c1ccccc1)[C@@H](C(=O)Nc1ccc(I)cc1F)N1C(=O)N[C@H](c2ccc(OC[C@H](O)CO)cc2)C1=O [Example 56, (2S,3S)-2-{(R)-4-[4-((R)-2,3-Dihydroxy-propoxy)-phenyl]-2,5-dioxo-imidazolidin-1-yl}-N-(2-fluoro-4-iodo-phenyl)-3-phenyl-butyramide] | synergistic effects | < 0.5 | < 1 | synergism | significantly less growth inhibitory effect | –
– | C[C@@H](c1ccccc1)[C@@H](C(=O)Nc1ccc(I)cc1Cl)N1C(=O)N[C@H](c2ccc(OC[C@H](O)CO)cc2)C1=O [Example 114, (2S,3S)—N-(2-Chloro-4-iodo-phenyl)-2-{(R)-4-[4-((R)-2,3-dihydroxy-propoxy)-phenyl]-2,5-dioxo-imidazolidin-1-yl}-3-phenyl-butyramide] | synergistic effects | – | – | – | – | –
> 30 | C#Cc1cccc(Nc2ncnc3cc(OCCOC)c(OCCOC)cc23)c1 [erlotinib, N-(3-ethynylphenyl)-6,7-bis(2-methoxyethoxy)-4-quinazolinamine, reference compound] | – | – | – | – | significant growth suppression | very resistant
